From PubChem BioAssay (NCI)
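How tested: cells in 96-well plates exposed to compound for 48 hours at five concentrations. At the TGI there is no net growth.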

How the values were obtained:
Test in all cases: inhibition of tumour cell growth, NCI panel, 48 h
[1] = tested on: COLO 205 colon
[2] = tested on: DU-145 prostate
[3] = tested on: NCI-H460 lung
[4] = tested on: OVCAR-8 ovarian
[5] = tested on: HS 578T breast
[6] = tested on: SNB-19 CNS
[7] = tested on: HL-60(TB) leukemia
[8] = tested on: SW-620 colon
[9] = tested on: HCC-2998 colon
[10] = tested on: NCI-H23 lung

COC(=O)c1c(C)nc2c1cc(O)c1[nH]c(C)c(C)nc12
TGI [1]: > 100 µM
TGI [2]: > 100 µM
TGI [3]: > 100 µM
TGI [4]: > 100 µM
TGI [5]: > 100 µM
TGI [6]: > 100 µM
TGI [7]: > 100 µM
TGI [8]: > 100 µM
TGI [9]: > 100 µM
TGI [10]: > 100 µM

O=C1CCCCC1CN1CCCCC1 (stereo not given)
TGI [1]: > 100 µM
TGI [2]: > 100 µM
TGI [3]: > 100 µM
TGI [4]: > 100 µM
TGI [5]: > 100 µM
TGI [6]: > 100 µM
TGI [7]: > 100 µM
TGI [8]: > 100 µM
TGI [9]: > 100 µM
TGI [10]: > 100 µM

CCN(CC)C(=S)N/N=C/c1cc([N+](=O)[O-])ccc1O
TGI [1]: 18.1 µM
TGI [2]: > 100 µM
TGI [3]: 24.8 µM
TGI [4]: 45.3 µM
TGI [5]: 95.7 µM
TGI [6]: 73 µM
TGI [7]: 6.08 µM
TGI [8]: > 100 µM
TGI [9]: 40.3 µM
TGI [10]: 28.9 µM

CCCCCC1=CC(=O)C1(Cl)Cl
TGI [1]: 26.7 µM
TGI [2]: 26.1 µM
TGI [3]: > 61.2 µM
TGI [4]: 34 µM
TGI [5]: > 81.3 µM
TGI [6]: > 67.3 µM
TGI [7]: 4.06 µM
TGI [8]: 40.5 µM
TGI [9]: 27.7 µM
TGI [10]: 49.7 µM

c1ccc2c(c1)Cn1c-2nc2ccccc21
TGI [1]: > 100 µM
TGI [2]: > 100 µM
TGI [3]: > 100 µM
TGI [4]: > 100 µM
TGI [5]: > 100 µM
TGI [6]: > 100 µM
TGI [7]: > 100 µM
TGI [8]: > 100 µM
TGI [9]: > 100 µM
TGI [10]: > 100 µM

CC(=O)Nn1c(=S)[nH]c2ccccc21
TGI [1]: > 100 µM
TGI [2]: > 100 µM
TGI [3]: > 100 µM
TGI [4]: > 100 µM
TGI [5]: > 100 µM
TGI [6]: > 100 µM
TGI [7]: > 100 µM
TGI [8]: > 100 µM
TGI [9]: > 100 µM
TGI [10]: > 100 µM

CC(=O)Nc1nc(NC(C)=O)c2[nH]c(CO)nc2n1
TGI [1]: > 100 µM
TGI [2]: > 100 µM
TGI [3]: > 100 µM
TGI [4]: > 100 µM
TGI [5]: > 100 µM
TGI [6]: > 100 µM
TGI [7]: > 100 µM
TGI [8]: > 100 µM
TGI [9]: > 100 µM
TGI [10]: > 100 µM

[N-]=[N+]=NC(c1ccccc1)(c1ccccc1)c1ccccc1
TGI [1]: 27.8 µM
TGI [2]: 36.1 µM
TGI [3]: 33 µM
TGI [4]: 35.1 µM
TGI [5]: 51.8 µM
TGI [6]: 39.5 µM
TGI [7]: 39.4 µM
TGI [8]: 40.5 µM
TGI [9]: 30.5 µM
TGI [10]: 42.4 µM

O=C(Cc1ccc(O)c(O)c1)NCc1c[nH]c2ccccc12
TGI [1]: > 100 µM
TGI [2]: > 100 µM
TGI [3]: > 100 µM
TGI [4]: > 100 µM
TGI [5]: > 100 µM
TGI [6]: > 100 µM
TGI [7]: 85.7 µM
TGI [8]: > 100 µM
TGI [9]: > 100 µM
TGI [10]: > 100 µM

C(=C(c1ccc(OC2CCCCO2)cc1)c1ccc(OC2CCCCO2)cc1)c1ccccc1 (stereo not given)
TGI [1]: 1.6 µM
TGI [2]: 2.11 µM
TGI [3]: 1.79 µM
TGI [4]: 2.64 µM
TGI [5]: 4.44 µM
TGI [6]: 2.54 µM
TGI [7]: 1.19 µM
TGI [8]: 1.62 µM
TGI [9]: 1.97 µM
TGI [10]: 2.24 µM

Nc1nccc(-c2c[nH]c3cc(Br)ccc23)n1
TGI [1]: > 100 µM
TGI [2]: > 100 µM
TGI [3]: > 100 µM
TGI [4]: > 100 µM
TGI [5]: 75.7 µM
TGI [6]: 47.5 µM
TGI [7]: > 100 µM
TGI [8]: > 100 µM
TGI [9]: 64.9 µM
TGI [10]: 88.4 µM

CC(=O)/C=C/C1=C(C)CCCC1(C)CC(C)C (stereo not given)
TGI [1]: > 100 µM
TGI [2]: > 100 µM
TGI [3]: > 100 µM
TGI [4]: > 100 µM
TGI [5]: > 100 µM
TGI [6]: > 100 µM
TGI [7]: 30.3 µM
TGI [8]: 44.1 µM
TGI [9]: 35.7 µM
TGI [10]: > 100 µM

CCOC(=O)N1CCN(Cc2cc(=O)n3ccc(C)cc3n2)CC1
TGI [1]: > 100 µM
TGI [2]: > 100 µM
TGI [3]: > 100 µM
TGI [4]: > 100 µM
TGI [5]: > 100 µM
TGI [6]: > 100 µM
TGI [7]: > 100 µM
TGI [8]: > 100 µM
TGI [9]: > 100 µM
TGI [10]: > 100 µM

Nc1nc(-c2ccccc2)nc2oc(-c3cccs3)nc12
TGI [1]: > 100 µM
TGI [2]: > 100 µM
TGI [3]: > 100 µM
TGI [4]: > 100 µM
TGI [5]: > 100 µM
TGI [6]: > 100 µM
TGI [7]: > 100 µM
TGI [8]: > 100 µM
TGI [9]: > 100 µM
TGI [10]: > 100 µM

Cc1oc2c(cc(O)c3cc(O)ccc32)c2cccc1-2
TGI [1]: > 100 µM
TGI [2]: > 100 µM
TGI [3]: > 100 µM
TGI [4]: > 100 µM
TGI [5]: > 100 µM
TGI [6]: > 100 µM
TGI [7]: > 100 µM
TGI [8]: > 100 µM
TGI [9]: > 100 µM
TGI [10]: > 100 µM
